This is an account of results in publication PMC5545170 (Pediatric diabetes, 2017).

What all share (assay): spectrophotometric GDH activity in […] cell homogenate
What all share (type): biochemical

For assay [1], the target named is GDH (glutamate dehydrogenase, GLUD1) (Homo sapiens, UniProt P00367, H507Y).
The target of assay [2] is GDH (glutamate dehydrogenase, GLUD1) (Homo sapiens, UniProt P00367, S498L).
Assay [3] addresses GDH (glutamate dehydrogenase, GLUD1) (Homo sapiens, UniProt P00367).

Chain of GDH (glutamate dehydrogenase, GLUD1) (Homo sapiens, UniProt P00367, S498L) (P00367 54-558 S498L): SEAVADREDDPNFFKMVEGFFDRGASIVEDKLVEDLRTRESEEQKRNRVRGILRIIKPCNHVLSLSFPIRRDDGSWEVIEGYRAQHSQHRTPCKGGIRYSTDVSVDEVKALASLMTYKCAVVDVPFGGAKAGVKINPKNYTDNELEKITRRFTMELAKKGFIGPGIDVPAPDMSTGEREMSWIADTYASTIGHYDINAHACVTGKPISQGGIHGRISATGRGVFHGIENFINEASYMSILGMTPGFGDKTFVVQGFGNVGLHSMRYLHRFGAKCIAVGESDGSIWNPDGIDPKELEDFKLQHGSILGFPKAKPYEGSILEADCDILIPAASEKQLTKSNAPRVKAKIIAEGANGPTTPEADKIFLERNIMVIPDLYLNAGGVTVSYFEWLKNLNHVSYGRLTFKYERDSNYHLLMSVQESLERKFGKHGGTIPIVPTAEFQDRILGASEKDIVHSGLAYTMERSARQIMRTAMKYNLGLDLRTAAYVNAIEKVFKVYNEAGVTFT
Chain of GDH (glutamate dehydrogenase, GLUD1) (Homo sapiens, UniProt P00367, H507Y) (P00367 54-558 H507Y): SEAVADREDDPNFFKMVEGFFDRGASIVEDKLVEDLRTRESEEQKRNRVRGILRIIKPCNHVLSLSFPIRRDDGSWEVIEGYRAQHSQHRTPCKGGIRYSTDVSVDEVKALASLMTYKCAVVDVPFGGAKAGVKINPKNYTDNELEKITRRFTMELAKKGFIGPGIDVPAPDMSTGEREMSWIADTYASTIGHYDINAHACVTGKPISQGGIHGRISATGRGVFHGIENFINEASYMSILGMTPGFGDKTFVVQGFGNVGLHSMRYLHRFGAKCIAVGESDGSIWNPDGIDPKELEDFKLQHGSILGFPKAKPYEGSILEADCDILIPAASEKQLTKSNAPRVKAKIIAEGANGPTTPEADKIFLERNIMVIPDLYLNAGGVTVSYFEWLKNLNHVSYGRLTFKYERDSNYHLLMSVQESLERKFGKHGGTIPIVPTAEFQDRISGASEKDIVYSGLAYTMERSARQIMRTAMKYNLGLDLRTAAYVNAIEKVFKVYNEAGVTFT
Chain of GDH (glutamate dehydrogenase, GLUD1) (Homo sapiens, UniProt P00367) (P00367 54-558): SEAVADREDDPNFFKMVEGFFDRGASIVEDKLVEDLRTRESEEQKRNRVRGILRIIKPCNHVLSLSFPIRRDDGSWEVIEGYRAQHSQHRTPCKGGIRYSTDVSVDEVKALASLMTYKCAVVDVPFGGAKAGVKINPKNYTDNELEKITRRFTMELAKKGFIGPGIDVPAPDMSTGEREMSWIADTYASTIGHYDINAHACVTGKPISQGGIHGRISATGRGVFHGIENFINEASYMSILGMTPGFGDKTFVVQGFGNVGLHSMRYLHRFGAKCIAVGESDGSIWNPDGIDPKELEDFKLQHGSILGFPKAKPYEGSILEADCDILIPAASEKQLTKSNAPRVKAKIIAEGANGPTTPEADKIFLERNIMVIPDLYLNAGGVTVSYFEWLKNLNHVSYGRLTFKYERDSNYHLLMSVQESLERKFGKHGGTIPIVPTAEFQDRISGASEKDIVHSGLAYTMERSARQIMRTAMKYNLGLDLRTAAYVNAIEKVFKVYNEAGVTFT

For orientation: IC50 means the concentration that inhibits the measured activity by half. With `O=C(O[C@@H]1Cc2c(O)cc(O)cc2O[C@@H]1c1cc(O)c(O)c(O)c1)c1cc(O)c(O)c(O)c1` [EGCG], the IC50 in assay [1] was found to be 1020 nM; in assay [2] it was 1070 nM; in assay [3], 1050 nM.

Take `Nc1nc2c(ncn2[C@@H]2O[C@H](COP(=O)(O)OP(=O)(O)OP(=O)(O)O)[C@@H](O)[C@H]2O)c(=O)[nH]1` [GTP]: the values for the concentration for half-maximal inhibition (IC50) in assay [1], in assay [2] and in assay [3] were 314000 nM, 40700 nM and 48 nM, respectively.
